# Source: patent publication US11207296B2, “XPA inhibitor compounds and their use” (INDIANA UNIVERSITY RESEARCH AND TECHNOLOGY CORPORATION, priority 2017, dated 2021)
# Target: full length XPA protein (Homo sapiens, UniProt P23025)
# Test: biochemical
# Conditions: IC50 (μM), EMSA, 32P labeled 30 bp duplex DNA containing a single 1,2 dGpG cisplatin adduct, several values in a cell = separate determinations
# Experimental: Purified XPA (lanes 2-18) was mixed with DMSO (Lane 2, C) control or the indicated compound at a concentration of 50 μM (Lanes 3-18). ^32P labeled ds-platinum damaged DNA was added and incubation continued for 30 minutes on ice. The products were separated on a 6% native gel by electrophoresis at 4° C. Products were detected and quantified by PhosphorImager analysis.
# EMSA was carried out using previously described procedure with the following modification. Reactions were performed in volume of 20 μL, containing a ^32P labeled 30 bp duplex DNA containing a single 1,2 dGpG cisplatin adduct. Compounds were pre-incubated on ice with the indicated amount of XPA and products separated by electrophoresis on a non-denaturing 6% polyacrylamide gel. Gels were cooled, loaded and electrophoresis performed at 4° C. Gels were used to expose a Phosphorlmager screen and band intensity determined and % binding and inhibition calculated as we have previously described.
# 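Further: XPA expressed in Sf9 cells, preincubated with compound on ice before adding DNA, complex resolved on native polyacrylamide gel at 4 °C, PhosphorImager band intensity, binding inhibition versus DMSO.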
# full length XPA protein, sequence (P23025 whole entry): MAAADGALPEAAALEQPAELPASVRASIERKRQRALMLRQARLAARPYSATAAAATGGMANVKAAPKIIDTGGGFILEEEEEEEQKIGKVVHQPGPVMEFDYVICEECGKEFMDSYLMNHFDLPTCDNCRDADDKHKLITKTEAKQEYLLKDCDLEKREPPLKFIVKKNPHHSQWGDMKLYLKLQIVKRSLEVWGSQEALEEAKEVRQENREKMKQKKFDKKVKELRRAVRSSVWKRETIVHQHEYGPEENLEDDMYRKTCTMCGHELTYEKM
row,IC50,Compound
1,35 µM,"COc1cccc(NC(=O)c2ccc(/C=C3\C(=O)N(c4cccc(C(=O)O)c4)N=C3C)o2)c1 [NG-02-162/ NG-02-162C, (Z)-3-(4-((5-((3-methoxyphenyl)carbamoyl)furan-2-yl)methylene)-3-methyl-5-oxo-4,5-dihydro-1H-pyrazol-1-yl)benzoic acid]"
2,30 µM,"CC1=NN(c2cccc(C(=O)O)c2)C(=O)/C1=C\c1ccc(-c2ccc(Cl)c(C(=O)O)c2)s1 [NG-03-224, (Z)-5-(5-((1-(3-Carboxyphenyl)-3-methyl-5-oxo-1,5-dihydro-4H-pyrazol-4-ylidene)methyl)thiophen-2-yl)-2-chlorobenzoic acid]"
3,40 µM,"O=C(O)c1cccc(N2N=C(C(F)(F)F)C(Cc3ccc(-c4ccc(Cl)c(C(=O)NCC5CC5)c4)o3)C2=O)c1 (stereo not shown) [NG-04-309, 3-(4-((5-(4-chloro-3-((cyclopropylmethyl)carbamoyl)phenyl)furan-2-yl)methyl)-5-oxo-3-(trifluoromethyl)-4,5-dihydro-1H-pyrazol-1-yl)benzoic acid]"
4,> 25 µM,"CCOC(=O)c1cccc(N2N=C(C)/C(=C/c3ccc(-c4ccc(Cl)c(C(=O)O)c4)o3)C2=O)c1 [Compound 31a, (Z)-2-Chloro-5-(5-((1-(3-(ethoxycarbonyl)phenyl)-3-methyl-5-oxo-1H-pyrazol-4(5H)-ylidene)methyl)furan-2-yl)benzoic acid]"
